Experimental data: ChEMBL document CHEMBL1201862, “PubChem BioAssay data set” (2004)
The source made the active and inactive calls.

Legend:
[1] = A Cell Based Secondary Assay to Explore Cytotoxicity in THP-1 Cells of Compounds that Modulate Mycobacterium tuberculosis in Media Containing Glycerol versus Media without Glycerol (2).; assay type: functional
[2] = Vero cell cytotoxicity, dose response, cytotoxicity control for M. tuberculosis growth inhibitor project, Vero cells, purified and synthesized compounds, set 5 (AID 504909); assay type: functional; settings: Mycobacterium tuberculosis
[3] = THP-1 cell cytotoxicity, cytotoxicity control, set 4 (AID 504911); assay type: functional; settings: Mycobacterium tuberculosis
[4] = A Cell Based Secondary Assay to Explore Cytotoxicity in HepG2 Cells of Compounds that Modulate Mycobacterium tuberculosis in Media Containing Glycerol versus Media without Glycerol (2).; assay type: functional
[5] = Vero cell cytotoxicity, dose response, cytotoxicity control for M. tuberculosis growth inhibitor project, Vero cells, purified and synthesized compounds, set 4 (AID 504854); assay type: functional; settings: Mycobacterium tuberculosis
[6] = THP-1 cell cytotoxicity, dose response, cytotoxicity control, set 3 (AID 504852); assay type: functional; settings: Mycobacterium tuberculosis
[7] = Vero cell cytotoxicity, cytotoxicity control for M. tuberculosis inhibitor project, purified and synthesized samples, set 3 (AID 504684); assay type: functional
Insulin-degrading enzyme [8] = target: T1, Insulin-degrading enzyme (Homo sapiens, UniProt P14735); assay: activators of endogenous IDE in HEK cells, dose response, cell-based, fluorescence polarization (AID 588439); assay type: functional
cells [9] = assay type: functional, cell-based
HEK293 [10] = assay: optical interference in Abeta FP readout, dose response, artefact control for IDE activator project, biochemical, fluorescence polarization (AID 588442); assay type: functional, cell-based; settings: Homo sapiens
Insulin-degrading enzyme [11] = target: T1, Insulin-degrading enzyme; assay: activators of recombinant IDE enzyme, dose response, counter-screen for IDE activator project, biochemical, fluorescence polarization (AID 588681)
cells [12] = assay type: functional, cell-based; remark: listed apart in the source
HEK293 [13] = assay: HEK cell cytotoxicity by LDH release, dose response, cytotoxicity control for IDE activator project, fluorescence, HEK cells (AID 588440); assay type: functional, cell-based; settings: Homo sapiens;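 note: cytotoxicity by LDH release measuring loss of membrane integrity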
Caspase-3 = target: T2, Caspase-3 (Homo sapiens, UniProt P42574); assay: procaspase-3 activators, dose response, biochemical, absorbance (AID 489014)
T2 sequence (P42574 whole entry): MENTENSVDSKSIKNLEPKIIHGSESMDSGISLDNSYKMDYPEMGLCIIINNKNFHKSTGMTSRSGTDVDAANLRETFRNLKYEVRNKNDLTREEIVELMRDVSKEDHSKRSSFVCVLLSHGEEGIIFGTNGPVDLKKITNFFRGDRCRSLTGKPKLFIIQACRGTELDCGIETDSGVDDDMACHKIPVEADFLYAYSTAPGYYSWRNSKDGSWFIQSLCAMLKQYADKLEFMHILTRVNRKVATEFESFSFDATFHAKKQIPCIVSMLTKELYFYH

Protein Rev = Protein Rev (Human immunodeficiency virus type 1 group M subtype B (isolate HXB2)(HIV-1), UniProt P04618); assay: inhibitors of Rev binding to RRE RNA, dose response, biochemical, fluorescence polarization, HIV-1 (AID 434976); parameters: species or system Human immunodeficiency virus 1
[14] = target: T3, Endoribonuclease toxin MazF (Escherichia coli K-12, UniProt P0AE70); assay: fluorescent RNA oligo signal without MazF, dose response, counter-screen for MazEF activator project, biochemical, fluorescence, single-stranded RNase substrate (AID 588502); assay type: functional
[15] = target: Female germline-specific tumor suppressor gld-1 (Caenorhabditis elegans, UniProt Q17339); assay: inhibitors of GLD-1 binding to TGE RNA, dose response, biochemical, fluorescence polarization, C. elegans (AID 2802);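 note: fluorescence polarization of labeled TGE RNA bound by purified gld-1 protein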
Caspase-7 = Caspase-7 (Homo sapiens, UniProt P55210); assay: procaspase-7 activators, dose response, counter-screen for procaspase-3 activator project, biochemical, absorbance (AID 489013)
[16] = target: T3, Endoribonuclease toxin MazF; assay: MazF toxin RNase activators, dose response, biochemical, fluorescence, single-stranded RNA substrate, uHTS hits (AID 588481); assay type: functional
[17] = target: Cyclin-dependent kinase 19 (Homo sapiens, UniProt Q9BWU1); assay: Navigating the Kinome. Panel member name: CDC2L6; assay type: functional
[18] = target: Vascular endothelial growth factor receptor 1 (Homo sapiens, UniProt P17948); assay type: functional;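 note: measured within a kinome-wide profiling panel, FLT1 as the panel member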
[19] = target: Protein disulfide-isomerase (Homo sapiens, UniProt P07237); assay: PDI inhibitors, insulin aggregation turbidity, dose response, biochemical, absorbance, cherry-picked samples (AID 602350); assay type: functional
NIH3T3 = assay: mammalian cell toxicity in NIH-3T3 fibroblasts, dose response, cytotoxicity control for antifungal resistance reversal project, Alamar Blue, dry powder, set 2 (AID 488911); assay type: functional, cell-based; settings: Mus musculus

T3 sequence (P0AE70 whole entry): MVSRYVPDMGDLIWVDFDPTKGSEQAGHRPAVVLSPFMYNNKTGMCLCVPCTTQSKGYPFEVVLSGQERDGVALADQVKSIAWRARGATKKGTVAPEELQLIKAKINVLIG
T1 sequence (P14735 whole entry): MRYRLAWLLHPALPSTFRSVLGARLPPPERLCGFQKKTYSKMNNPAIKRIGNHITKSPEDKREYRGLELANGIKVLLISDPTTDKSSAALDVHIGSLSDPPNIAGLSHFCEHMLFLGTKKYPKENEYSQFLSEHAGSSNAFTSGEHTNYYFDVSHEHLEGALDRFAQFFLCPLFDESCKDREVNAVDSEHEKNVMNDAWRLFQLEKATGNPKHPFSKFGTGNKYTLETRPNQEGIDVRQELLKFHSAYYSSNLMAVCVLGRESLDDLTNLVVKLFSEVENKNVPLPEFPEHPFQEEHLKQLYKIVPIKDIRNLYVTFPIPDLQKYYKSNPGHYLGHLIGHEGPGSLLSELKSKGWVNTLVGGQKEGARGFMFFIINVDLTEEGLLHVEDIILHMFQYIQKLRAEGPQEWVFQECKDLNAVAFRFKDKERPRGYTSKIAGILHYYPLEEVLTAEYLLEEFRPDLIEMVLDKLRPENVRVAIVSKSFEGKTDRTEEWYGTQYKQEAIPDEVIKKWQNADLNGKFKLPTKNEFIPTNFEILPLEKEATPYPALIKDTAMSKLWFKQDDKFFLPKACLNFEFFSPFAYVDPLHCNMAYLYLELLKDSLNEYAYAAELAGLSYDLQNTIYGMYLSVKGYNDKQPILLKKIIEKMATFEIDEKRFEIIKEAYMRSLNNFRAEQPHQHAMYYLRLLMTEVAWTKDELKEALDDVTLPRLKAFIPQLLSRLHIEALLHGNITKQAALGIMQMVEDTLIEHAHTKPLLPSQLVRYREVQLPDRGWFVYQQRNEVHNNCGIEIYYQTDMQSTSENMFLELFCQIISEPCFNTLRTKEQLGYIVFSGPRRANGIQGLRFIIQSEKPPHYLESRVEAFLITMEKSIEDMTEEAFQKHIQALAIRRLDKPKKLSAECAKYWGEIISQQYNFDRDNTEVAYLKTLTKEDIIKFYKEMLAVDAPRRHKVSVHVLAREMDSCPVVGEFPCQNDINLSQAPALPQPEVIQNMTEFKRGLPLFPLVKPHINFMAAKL
Sequence of Protein Rev (P04618 whole entry): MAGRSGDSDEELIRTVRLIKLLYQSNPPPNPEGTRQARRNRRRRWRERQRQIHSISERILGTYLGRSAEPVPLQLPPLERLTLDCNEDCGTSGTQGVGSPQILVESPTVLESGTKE
Sequence of Cyclin-dependent kinase 19 (Q9BWU1 whole entry): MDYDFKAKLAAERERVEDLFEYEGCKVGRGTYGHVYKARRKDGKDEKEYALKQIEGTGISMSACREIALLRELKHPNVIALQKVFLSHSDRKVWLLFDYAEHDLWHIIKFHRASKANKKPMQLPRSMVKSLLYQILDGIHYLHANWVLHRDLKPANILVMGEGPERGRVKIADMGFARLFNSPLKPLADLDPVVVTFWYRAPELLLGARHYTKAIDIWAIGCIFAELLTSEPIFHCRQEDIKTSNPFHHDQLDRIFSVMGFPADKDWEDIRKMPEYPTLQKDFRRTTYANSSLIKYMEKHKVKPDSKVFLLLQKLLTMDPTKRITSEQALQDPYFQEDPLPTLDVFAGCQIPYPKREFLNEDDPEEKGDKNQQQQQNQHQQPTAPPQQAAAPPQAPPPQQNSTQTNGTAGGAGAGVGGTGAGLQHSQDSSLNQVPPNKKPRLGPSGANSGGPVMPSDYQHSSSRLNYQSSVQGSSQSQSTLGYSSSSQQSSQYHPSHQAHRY
Sequence of Vascular endothelial growth factor receptor 1 (P17948 whole entry): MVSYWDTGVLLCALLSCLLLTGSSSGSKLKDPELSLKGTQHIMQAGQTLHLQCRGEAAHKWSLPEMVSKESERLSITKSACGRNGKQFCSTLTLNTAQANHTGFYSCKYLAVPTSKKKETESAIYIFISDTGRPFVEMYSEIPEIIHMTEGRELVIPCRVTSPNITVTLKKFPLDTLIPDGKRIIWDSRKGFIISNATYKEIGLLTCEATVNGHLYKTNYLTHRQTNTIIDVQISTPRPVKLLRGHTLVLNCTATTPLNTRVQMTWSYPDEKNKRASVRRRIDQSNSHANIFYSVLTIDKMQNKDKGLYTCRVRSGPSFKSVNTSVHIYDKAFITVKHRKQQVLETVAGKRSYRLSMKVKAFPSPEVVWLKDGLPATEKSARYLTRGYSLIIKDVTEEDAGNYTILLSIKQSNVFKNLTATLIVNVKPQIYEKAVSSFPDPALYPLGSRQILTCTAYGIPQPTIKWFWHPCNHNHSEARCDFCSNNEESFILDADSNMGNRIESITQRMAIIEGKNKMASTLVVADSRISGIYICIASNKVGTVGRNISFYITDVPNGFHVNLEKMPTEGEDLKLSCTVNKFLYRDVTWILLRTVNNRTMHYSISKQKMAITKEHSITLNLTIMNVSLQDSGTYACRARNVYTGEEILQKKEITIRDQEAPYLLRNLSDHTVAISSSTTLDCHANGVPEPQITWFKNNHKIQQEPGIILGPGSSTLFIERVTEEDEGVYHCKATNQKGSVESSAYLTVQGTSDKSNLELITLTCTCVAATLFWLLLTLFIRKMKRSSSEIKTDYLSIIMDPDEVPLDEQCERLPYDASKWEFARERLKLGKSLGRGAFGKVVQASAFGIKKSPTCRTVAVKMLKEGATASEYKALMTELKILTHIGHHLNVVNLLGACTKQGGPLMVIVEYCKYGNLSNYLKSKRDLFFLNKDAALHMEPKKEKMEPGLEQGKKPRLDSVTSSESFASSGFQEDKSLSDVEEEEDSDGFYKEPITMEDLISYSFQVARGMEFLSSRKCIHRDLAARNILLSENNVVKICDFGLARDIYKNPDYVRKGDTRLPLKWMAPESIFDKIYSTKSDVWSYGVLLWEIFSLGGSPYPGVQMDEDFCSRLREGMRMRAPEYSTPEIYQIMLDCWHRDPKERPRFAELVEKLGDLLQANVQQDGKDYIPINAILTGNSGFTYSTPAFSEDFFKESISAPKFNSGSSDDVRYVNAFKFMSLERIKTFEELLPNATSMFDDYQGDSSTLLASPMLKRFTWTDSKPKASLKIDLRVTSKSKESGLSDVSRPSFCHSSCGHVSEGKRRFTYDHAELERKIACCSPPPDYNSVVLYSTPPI
Sequence of Female germline-specific tumor suppressor gld-1 (Q17339 whole entry): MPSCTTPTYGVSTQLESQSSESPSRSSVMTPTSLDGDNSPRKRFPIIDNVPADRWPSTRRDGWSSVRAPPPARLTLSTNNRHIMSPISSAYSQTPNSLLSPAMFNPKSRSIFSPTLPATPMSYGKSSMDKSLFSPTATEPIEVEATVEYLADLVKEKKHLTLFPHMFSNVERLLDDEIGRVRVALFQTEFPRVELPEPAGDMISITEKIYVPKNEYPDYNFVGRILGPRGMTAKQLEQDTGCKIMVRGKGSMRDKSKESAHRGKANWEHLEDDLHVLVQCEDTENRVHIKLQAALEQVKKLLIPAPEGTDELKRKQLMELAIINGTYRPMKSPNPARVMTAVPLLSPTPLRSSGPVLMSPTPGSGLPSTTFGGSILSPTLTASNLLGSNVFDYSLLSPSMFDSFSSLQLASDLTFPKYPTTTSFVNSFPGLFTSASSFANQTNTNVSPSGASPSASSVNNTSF
Sequence of Protein disulfide-isomerase (P07237 whole entry): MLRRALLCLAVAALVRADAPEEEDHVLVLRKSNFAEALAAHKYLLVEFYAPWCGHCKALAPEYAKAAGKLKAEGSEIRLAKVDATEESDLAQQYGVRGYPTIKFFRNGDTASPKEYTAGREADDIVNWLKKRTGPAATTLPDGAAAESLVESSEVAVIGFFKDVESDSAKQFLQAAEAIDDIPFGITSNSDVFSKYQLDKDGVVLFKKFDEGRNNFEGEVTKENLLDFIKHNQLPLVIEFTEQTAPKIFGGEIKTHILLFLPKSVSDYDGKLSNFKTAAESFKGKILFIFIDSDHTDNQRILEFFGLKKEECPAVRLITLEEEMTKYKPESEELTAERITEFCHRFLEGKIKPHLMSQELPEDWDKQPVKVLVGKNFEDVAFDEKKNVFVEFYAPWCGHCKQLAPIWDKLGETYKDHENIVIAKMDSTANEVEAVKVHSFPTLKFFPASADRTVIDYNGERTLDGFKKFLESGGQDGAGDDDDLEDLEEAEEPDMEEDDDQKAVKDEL
Sequence of Caspase-7 (P55210 24-198 limits assumed): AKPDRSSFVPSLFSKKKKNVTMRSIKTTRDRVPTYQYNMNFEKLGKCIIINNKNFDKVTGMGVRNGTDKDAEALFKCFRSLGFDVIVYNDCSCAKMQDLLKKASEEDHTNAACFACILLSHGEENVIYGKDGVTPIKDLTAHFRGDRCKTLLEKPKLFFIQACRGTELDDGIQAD
Sequence of Caspase-7 (P55210 207-303 limits assumed): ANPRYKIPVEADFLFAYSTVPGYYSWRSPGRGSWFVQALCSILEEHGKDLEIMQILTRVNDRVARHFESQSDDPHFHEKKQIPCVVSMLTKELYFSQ

SMILES: COC(=O)C(Nc1nc(SCC(=O)NC2CCCCC2)nc2ccccc12)c1ccccc1 (stereo not drawn)
- CC50 [1]: 70.9 µM (active)
- CC50 [2]: > 100 µM (active)
- CC50 [3]: 129 µM (active)
- CC50 [4]: > 50 µM (active)
- CC50 [5]: 66 µM (active)
- CC50 [6]: 41.1 µM (active)
- CC50 [7]: 73.2 µM (active)

SMILES: COc1ccc(NC(=O)C2CCN(S(=O)(=O)c3ccc4c(c3)CC(C)N4C(C)=O)CC2)cc1OC (stereo not drawn)
- EC50 (Insulin-degrading enzyme [8]): > 54.7 µM (inactive)
- EC50 (cells [9]): > 350 µM (not active)
- EC50 (HEK293 [10]): > 54.7 µM (inactive)
- EC50 (Insulin-degrading enzyme [11]): > 54.7 µM (inactive)
- EC50 (cells [12]): > 350 µM (not active)
- IC50 (HEK293 [13]): > 89.2 µM (inactive)

SMILES: CC(=O)Oc1cccc2c1C(=O)c1c(OC(C)=O)cc(C(=O)O)cc1C2=O [DIACEREIN]
- EC50 (Caspase-3): 7.89 µM (active)
- IC50 (Protein Rev): > 75.4 µM (not active)
- EC50 [14]: > 99 µM (inactive)
- IC50 [15]: 7.31 µM (active)
- EC50 (Caspase-7): 14.8 µM (inactive)
- EC50 [16]: > 99 µM (inactive)

SMILES: Cc1ccc(F)c(NC(=O)Nc2ccc(-c3coc4c(-c5cccnc5)cnc(N)c34)cc2)c1
- Ki [17]: > 100 µM (inactive)
- Ki [18]: 0.000251 µM (active)

SMILES: C[C@@H]1CN([C@@H](C)CO)C(=O)c2cc(NC(=O)Cc3cn(C)c4ccccc34)ccc2O[C@H]1CN(C)S(=O)(=O)c1ccc(F)cc1
- AC50 [19]: 2.08 µM (active)

SMILES: O=C(O)Cn1nc(-c2ccccc2)c2ccccc21
- AC50 (NIH3T3): > 260 µM (inactive)
